Reference: ChEMBL document CHEMBL3885881, “DrugMatrix”

Species on record: Rattus norvegicus
Assay: DrugMatrix - Regimen: Daily Repeat
Assay type: toxicity, organism-based, Sprague-Dawley
Design: regimen Daily Repeat, gender Male, age 6-8 weeks
Details: in vivo, po, route oral GAVAGE; for BASOPHIL / EOSINOPHIL / ERYTHROCYTE COUNT / HEMATOCRIT / HEMOGLOBIN / LEUKOCYTE COUNT / LYMPHOCYTE / MEAN CORPUSCULAR HEMOGLOBIN / MEAN CORPUSCULAR HEMOGLOBIN CONCENTRATION / MEAN CORPUSCULAR VOLUME / MONOCYTE / NEUTROPHIL / NUCLEATED RED BLOOD CELLS / PLATELET COUNT / ABSOLUTE BASOPHIL / ABSOLUTE EOSINOPHIL / ABSOLUTE LYMPHOCYTE / ABSOLUTE MONOCYTE / ABSOLUTE SEGMENTED NEUTROPHIL: tissue Blood; for ALANINE AMINOTRANSFERASE / ALBUMIN / ALKALINE PHOSPHATASE / ASPARTATE AMINOTRANSFERASE / BLOOD UREA NITROGEN / CARBON DIOXIDE / CHLORIDE / CHOLESTEROL / CREATINE PHOSPHOKINASE / CREATININE / GLUCOSE / LACTATE DEHYDROGENASE / LIPASE / PHOSPHORUS / POTASSIUM / SODIUM / TOTAL BILIRUBIN / TOTAL PROTEIN / URIC ACID: tissue Plasma
[1] = 300 mg/kg, 120 h, dose level M2, time 5 day, vehicle 100 % SALINE
[2] = 420 mg/kg, 72 h, dose level High, time 3 day, vehicle 100 % WATER
[3] = 420 mg/kg, 120 h, dose level High, time 5 day, vehicle 100 % WATER
[4] = […], 72 h, dose 2.5 mg/Kg, dose level Low, time 3 day, vehicle 100 % WATER
[5] = […], 120 h, dose 2.5 mg/Kg, dose level Low, time 5 day, vehicle 100 % WATER

CCCc1nn(C)c2c(=O)[nH]c(-c3cc(S(=O)(=O)N4CCN(C)CC4)ccc3OCC)nc12
BASOPHIL [1]: 0%
EOSINOPHIL [1]: 0%
ERYTHROCYTE COUNT [1]: 5.43 x10E6/uL
HEMATOCRIT [1]: 35.43%
HEMOGLOBIN [1]: 14 G/DL
LEUKOCYTE COUNT [1]: 11.23 x10E3/uL
LYMPHOCYTE [1]: 91%
MEAN CORPUSCULAR HEMOGLOBIN [1]: 25.83 pg
MEAN CORPUSCULAR HEMOGLOBIN CONCENTRATION [1]: 39.53 G/DL
MEAN CORPUSCULAR VOLUME [1]: 65.33 fL
MONOCYTE [1]: 0%
NEUTROPHIL [1]: 9%
NUCLEATED RED BLOOD CELLS [1]: 0.67 /100WBC
PLATELET COUNT [1]: 1112.67 x10E3/uL
ALANINE AMINOTRANSFERASE [1]: 45 u/L
ALBUMIN [1]: 4.03 G/DL
ALKALINE PHOSPHATASE [1]: 344 u/L
ASPARTATE AMINOTRANSFERASE [1]: 70.33 u/L
BLOOD UREA NITROGEN [1]: 14.67 mg/dL
CARBON DIOXIDE [1]: 33 mmol/L
CHLORIDE [1]: 100.33 MEQ/L
CHOLESTEROL [1]: 70 mg/dL
CREATINE PHOSPHOKINASE [1]: 212 u/L
CREATININE [1]: 0.31 mg/dL
GLUCOSE [1]: 137.33 mg/dL
LACTATE DEHYDROGENASE [1]: 106 u/L
LIPASE [1]: 11.33 u/L
PHOSPHORUS [1]: 10.77 mg/dL
POTASSIUM [1]: 6.45 MEQ/L
SODIUM [1]: 146.53 MEQ/L
TOTAL BILIRUBIN [1]: 0.2 mg/dL
TOTAL PROTEIN [1]: 5.43 G/DL
URIC ACID [1]: 0.73 mg/dL
ABSOLUTE BASOPHIL [2]: 0 CELLS/uL
ABSOLUTE EOSINOPHIL [2]: 0 CELLS/uL
ABSOLUTE LYMPHOCYTE [2]: 12448.33 CELLS/uL
ABSOLUTE MONOCYTE [2]: 74 CELLS/uL
ABSOLUTE SEGMENTED NEUTROPHIL [2]: 877.67 CELLS/uL
BASOPHIL [2]: 0%
EOSINOPHIL [2]: 0%
ERYTHROCYTE COUNT [2]: 5.64 x10E6/uL
HEMATOCRIT [2]: 35.27%
HEMOGLOBIN [2]: 13.43 G/DL
LEUKOCYTE COUNT [2]: 13.4 x10E3/uL
LYMPHOCYTE [2]: 92.33%
MEAN CORPUSCULAR HEMOGLOBIN [2]: 23.8 pg
MEAN CORPUSCULAR HEMOGLOBIN CONCENTRATION [2]: 38.1 G/DL
MEAN CORPUSCULAR VOLUME [2]: 62.57 fL
MONOCYTE [2]: 0.67%
NEUTROPHIL [2]: 7%
NUCLEATED RED BLOOD CELLS [2]: 0 /100WBC
PLATELET COUNT [2]: 944.33 x10E3/uL
ALANINE AMINOTRANSFERASE [2]: 41.67 u/L
ALBUMIN [2]: 3.77 G/DL
ALKALINE PHOSPHATASE [2]: 304 u/L
ASPARTATE AMINOTRANSFERASE [2]: 72.67 u/L
BLOOD UREA NITROGEN [2]: 16.33 mg/dL
CARBON DIOXIDE [2]: 30.33 mmol/L
CHLORIDE [2]: 102.33 MEQ/L
CHOLESTEROL [2]: 79.67 mg/dL
CREATINE PHOSPHOKINASE [2]: 170 u/L
CREATININE [2]: 0.14 mg/dL
GLUCOSE [2]: 148 mg/dL
LACTATE DEHYDROGENASE [2]: 130.33 u/L
LIPASE [2]: 9.67 u/L
PHOSPHORUS [2]: 8.4 mg/dL
POTASSIUM [2]: 5.71 MEQ/L
SODIUM [2]: 146.4 MEQ/L
TOTAL BILIRUBIN [2]: 0.23 mg/dL
TOTAL PROTEIN [2]: 5.6 G/DL
URIC ACID [2]: 0.5 mg/dL
ABSOLUTE BASOPHIL [3]: 0 CELLS/uL
ABSOLUTE EOSINOPHIL [3]: 0 CELLS/uL
ABSOLUTE LYMPHOCYTE [3]: 8874.67 CELLS/uL
ABSOLUTE MONOCYTE [3]: 36 CELLS/uL
ABSOLUTE SEGMENTED NEUTROPHIL [3]: 756 CELLS/uL
BASOPHIL [3]: 0%
EOSINOPHIL [3]: 0%
ERYTHROCYTE COUNT [3]: 5.05 x10E6/uL
HEMATOCRIT [3]: 32.73%
HEMOGLOBIN [3]: 12.9 G/DL
LEUKOCYTE COUNT [3]: 9.67 x10E3/uL
LYMPHOCYTE [3]: 91.67%
MEAN CORPUSCULAR HEMOGLOBIN [3]: 25.53 pg
MEAN CORPUSCULAR HEMOGLOBIN CONCENTRATION [3]: 39.4 G/DL
MEAN CORPUSCULAR VOLUME [3]: 64.8 fL
MONOCYTE [3]: 0.33%
NEUTROPHIL [3]: 8%
NUCLEATED RED BLOOD CELLS [3]: 0 /100WBC
PLATELET COUNT [3]: 1090.67 x10E3/uL
ALANINE AMINOTRANSFERASE [3]: 33.67 u/L
ALBUMIN [3]: 3.67 G/DL
ALKALINE PHOSPHATASE [3]: 232 u/L
ASPARTATE AMINOTRANSFERASE [3]: 57 u/L
BLOOD UREA NITROGEN [3]: 15.67 mg/dL
CARBON DIOXIDE [3]: 33.67 mmol/L
CHLORIDE [3]: 99 MEQ/L
CHOLESTEROL [3]: 77.67 mg/dL
CREATINE PHOSPHOKINASE [3]: 155 u/L
CREATININE [3]: 0.11 mg/dL
GLUCOSE [3]: 144.67 mg/dL
LACTATE DEHYDROGENASE [3]: 100 u/L
LIPASE [3]: 10 u/L
PHOSPHORUS [3]: 10.2 mg/dL
POTASSIUM [3]: 5.99 MEQ/L
SODIUM [3]: 146.03 MEQ/L
TOTAL BILIRUBIN [3]: 0.17 mg/dL
TOTAL PROTEIN [3]: 5.83 G/DL
URIC ACID [3]: 0.63 mg/dL
ABSOLUTE BASOPHIL [4]: 0 CELLS/uL
ABSOLUTE EOSINOPHIL [4]: 0 CELLS/uL
ABSOLUTE LYMPHOCYTE [4]: 7128 CELLS/uL
ABSOLUTE MONOCYTE [4]: 81 CELLS/uL
ABSOLUTE SEGMENTED NEUTROPHIL [4]: 891 CELLS/uL
BASOPHIL [4]: 0%
EOSINOPHIL [4]: 0%
ERYTHROCYTE COUNT [4]: 5.44 x10E6/uL
HEMATOCRIT [4]: 34.27%
HEMOGLOBIN [4]: 13.2 G/DL
LEUKOCYTE COUNT [4]: 8.1 x10E3/uL
LYMPHOCYTE [4]: 88%
MEAN CORPUSCULAR HEMOGLOBIN [4]: 24.4 pg
MEAN CORPUSCULAR HEMOGLOBIN CONCENTRATION [4]: 38.53 G/DL
MEAN CORPUSCULAR VOLUME [4]: 63.23 fL
MONOCYTE [4]: 1%
NEUTROPHIL [4]: 11%
NUCLEATED RED BLOOD CELLS [4]: 0.33 /100WBC
PLATELET COUNT [4]: 1027 x10E3/uL
ALANINE AMINOTRANSFERASE [4]: 61 u/L
ALBUMIN [4]: 4.03 G/DL
ALKALINE PHOSPHATASE [4]: 377.33 u/L
ASPARTATE AMINOTRANSFERASE [4]: 87.33 u/L
BLOOD UREA NITROGEN [4]: 16 mg/dL
CARBON DIOXIDE [4]: 29.33 mmol/L
CHLORIDE [4]: 101.67 MEQ/L
CHOLESTEROL [4]: 61 mg/dL
CREATINE PHOSPHOKINASE [4]: 188.67 u/L
CREATININE [4]: 0.1 mg/dL
GLUCOSE [4]: 163 mg/dL
LACTATE DEHYDROGENASE [4]: 107.67 u/L
LIPASE [4]: 8.33 u/L
PHOSPHORUS [4]: 9.57 mg/dL
POTASSIUM [4]: 5.88 MEQ/L
SODIUM [4]: 147.5 MEQ/L
TOTAL BILIRUBIN [4]: 0.17 mg/dL
TOTAL PROTEIN [4]: 5.97 G/DL
URIC ACID [4]: 0.63 mg/dL
ABSOLUTE BASOPHIL [5]: 0 CELLS/uL
ABSOLUTE EOSINOPHIL [5]: 0 CELLS/uL
ABSOLUTE LYMPHOCYTE [5]: 7975.33 CELLS/uL
ABSOLUTE MONOCYTE [5]: 0 CELLS/uL
ABSOLUTE SEGMENTED NEUTROPHIL [5]: 658 CELLS/uL
BASOPHIL [5]: 0%
EOSINOPHIL [5]: 0%
ERYTHROCYTE COUNT [5]: 5.39 x10E6/uL
HEMATOCRIT [5]: 34.73%
HEMOGLOBIN [5]: 14 G/DL
LEUKOCYTE COUNT [5]: 8.63 x10E3/uL
LYMPHOCYTE [5]: 92%
MEAN CORPUSCULAR HEMOGLOBIN [5]: 26 pg
MEAN CORPUSCULAR HEMOGLOBIN CONCENTRATION [5]: 40.3 G/DL
MEAN CORPUSCULAR VOLUME [5]: 64.5 fL
MONOCYTE [5]: 0%
NEUTROPHIL [5]: 8%
NUCLEATED RED BLOOD CELLS [5]: 0.33 /100WBC
PLATELET COUNT [5]: 629.67 x10E3/uL
ALANINE AMINOTRANSFERASE [5]: 49.67 u/L
ALBUMIN [5]: 4.27 G/DL
ALKALINE PHOSPHATASE [5]: 363.67 u/L
ASPARTATE AMINOTRANSFERASE [5]: 76 u/L
BLOOD UREA NITROGEN [5]: 14.33 mg/dL
CARBON DIOXIDE [5]: 32 mmol/L
CHLORIDE [5]: 98.67 MEQ/L
CHOLESTEROL [5]: 77 mg/dL
CREATINE PHOSPHOKINASE [5]: 203.33 u/L
CREATININE [5]: 0.13 mg/dL
GLUCOSE [5]: 145.33 mg/dL
LACTATE DEHYDROGENASE [5]: 120 u/L
LIPASE [5]: 9.33 u/L
PHOSPHORUS [5]: 11.67 mg/dL
POTASSIUM [5]: 6.39 MEQ/L
SODIUM [5]: 144.5 MEQ/L
TOTAL BILIRUBIN [5]: 0.2 mg/dL
TOTAL PROTEIN [5]: 6.3 G/DL
URIC ACID [5]: 0.87 mg/dL
